# Laboratory results published in patent publication US20080033026A1, “Antimicrobial compositions, methods and systems” (priority 2006, published 2008).
# Assays:
# [1] = tested on: Salmonella enteritidis (ATCC 13076); test: Preservative effectiveness on food pathogens (US Pharmacopoeia 23); type: cell-based
# Protocol: (§1) The effectiveness of 9-decenoic acid on food pathogens was determined using the protocol on preservative effectiveness found in the US Pharmacopoeia 23, 1995.
# (§2) Stock cultures of the Listeria monocytogenes (ATCC 1911-1), Salmonella enteritidis (ATCC 13076) and Campylobacter jejuni (ATCC 29428) were transferred for at least three consecutives days on Trypticase Soy Agar (TSA) and incubated at 30-35° C. for 18-24 hours. On the day of the test, the cells were washed from the agar surface with sterile saline containing 0.05% w/v Polysorbate 80 (SS+) and the suspension was centrifuged at 2000 rpm for 15 minutes and resuspended in SS+. The suspension was diluted to approximately 10^8 CFU/ml.
# (§3) The 9-decenoic acid was diluted in the same manner as previously described to achieve concentrations of 0.25%, 0.125%, 0.0625%, 0.03%, 0.015%, 0.0078% and 0.0039%. The samples were dispensed in 20 ml aliquots in sterile test tubes. For each concentration tested, a 0.1 ml aliquot of each inoculum was added to a final concentration of 10^5 to 10^6 CFU/ml. The tubes were incubated at room temperature and sampled on days 0, 1, 2, 4, 7, 14, 21 and 28.
# (§4) At each sample point, 1.0 ml aliquots were withdrawn, serially diluted and plated in triplicate on TSA. The plates were incubated at 30-35° C. for 2-4 days. The colonies were counted and the average CFU/ml was calculated. Controls for purity, viability and sterility were performed as described previously.
# (§5) According to the US Pharmacopoeia, a test compound is an effective preservative if the concentrations of viable bacteria remain at or below the initial concentrations during the first fourteen days and after 28 days.
# (§6) Additionally, test organisms in Tables 9-11 were exposed to the 9-decenoic acid for several minutes before analysis at Day 0. As shown in the Tables 9-11, significant biocidal activity was observed even within this short time period for the test organisms, illustrating the effectiveness of 9-decenoic acid as a biocidal agent.
# [2] = tested on: Listeria monocytogenes (ATCC 19111); test: as above; type: cell-based
# Protocol: as §1, §2, §3, §4, §5, §6
# [3] = 0.0078% 9-decenoic acid, exposure day 0
# [4] = 0.0078% 9-decenoic acid, exposure day 1
# [5] = 0.0078% 9-decenoic acid, exposure day 2
# [6] = 0.0078% 9-decenoic acid, exposure day 4
# [7] = 0.0078% 9-decenoic acid, exposure day 7
# [8] = 0.0078% 9-decenoic acid, exposure day 14
# [9] = 0.0078% 9-decenoic acid, exposure day 21
# [10] = 0.0078% 9-decenoic acid, exposure day 28
# [11] = 0.015% 9-decenoic acid, exposure day 0
# [12] = 0.015% 9-decenoic acid, exposure day 1
# [13] = 0.015% 9-decenoic acid, exposure day 2
# [14] = 0.015% 9-decenoic acid, exposure day 4
# [15] = 0.015% 9-decenoic acid, exposure day 7
# [16] = 0.015% 9-decenoic acid, exposure day 14
# [17] = 0.015% 9-decenoic acid, exposure day 21
# [18] = 0.015% 9-decenoic acid, exposure day 28
# [19] = 0.03% 9-decenoic acid, exposure day 0
# [20] = 0.03% 9-decenoic acid, exposure day 1
# [21] = 0.03% 9-decenoic acid, exposure day 2
# [22] = 0.03% 9-decenoic acid, exposure day 4
# [23] = 0.03% 9-decenoic acid, exposure day 7
# [24] = 0.03% 9-decenoic acid, exposure day 14
# [25] = 0.03% 9-decenoic acid, exposure day 21
# [26] = 0.03% 9-decenoic acid, exposure day 28
# [27] = US Pharmacopoeia definition, 28 days
structure (smiles),measurement,setting,value
C=CCCCCCCCC(=O)O [9-decenoic acid],Log reduction,[1]; [3],0.53 log
same,Log reduction,[1]; [4],3.2 log
same,Log reduction,[1]; [5],4.1 log
same,Log reduction,[1]; [6],4.0 log
same,Log reduction,[1]; [7],5.1 log
same,Log reduction,[1]; [8],5.1 log
same,Log reduction,[1]; [9],5.1 log
same,Log reduction,[1]; [10],5.1 log
same,Log reduction,[1]; [11],5.1 log
same,Log reduction,[1]; [12],5.1 log
same,Log reduction,[1]; [13],5.1 log
same,Log reduction,[1]; [14],5.1 log
same,Log reduction,[1]; [15],5.1 log
same,Log reduction,[1]; [16],5.1 log
same,Log reduction,[1]; [17],5.1 log
same,Log reduction,[1]; [18],5.1 log
same,Log reduction,[1]; [19],5.1 log
same,Log reduction,[1]; [20],5.1 log
same,Log reduction,[1]; [21],5.1 log
same,Log reduction,[1]; [22],5.1 log
same,Log reduction,[1]; [23],5.1 log
same,Log reduction,[1]; [24],5.1 log
same,Log reduction,[1]; [25],5.1 log
same,Log reduction,[1]; [26],5.1 log
same,Concentration at which effective preservative,[1]; [27],≤ 0.0078%
same,Exposure time at which bactericidal,[1]; at 0.0078%,7 days
same,Exposure time at which bactericidal,[1]; at 0.015%,0 days
same,Log reduction,[2]; [3],1.0 log
same,Log reduction,[2]; [4],5.1 log
same,Log reduction,[2]; [5],5.1 log
same,Log reduction,[2]; [6],5.1 log
same,Log reduction,[2]; [7],5.1 log
same,Log reduction,[2]; [8],5.1 log
same,Log reduction,[2]; [9],5.1 log
same,Log reduction,[2]; [10],5.1 log
same,Log reduction,[2]; [11],5.1 log
same,Log reduction,[2]; [12],5.1 log
same,Log reduction,[2]; [13],5.1 log
same,Log reduction,[2]; [14],5.1 log
same,Log reduction,[2]; [15],5.1 log
same,Log reduction,[2]; [16],5.1 log
same,Log reduction,[2]; [17],5.1 log
same,Log reduction,[2]; [18],5.1 log
same,Log reduction,[2]; [19],5.1 log
same,Log reduction,[2]; [20],5.1 log
same,Log reduction,[2]; [21],5.1 log
same,Log reduction,[2]; [22],5.1 log
same,Log reduction,[2]; [23],5.1 log
same,Log reduction,[2]; [24],5.1 log
same,Log reduction,[2]; [25],5.1 log
same,Log reduction,[2]; [26],5.1 log
same,Concentration at which effective preservative,[2]; [27],≤ 0.0078%
same,Exposure time at which bactericidal,[2]; at 0.0078%,1 days
same,Exposure time at which bactericidal,[2]; at 150 ppm,0 days
